This note sets out measurements from patent US12570606B2, “Myeloperoxidase imaging agents” (The General Hospital Corporation, priority 2016, dated 2026).

The data set is described as follows: Stability of Compound 9 formulated for injection at room temperature. Format: physicochemical. The method, then:
Radiolabeling chemistry was performed using automated synthesis of the following steps: (1) azeotropic drying of [^18F]-fluoride; (2) [^18F]-fluorination; (3) Boc deprotection; and (4) HPLC purification, followed by solid-phase formulation of the final product. The synthesis module was operated in the following sequences with numerical references to FIG. 1. Automated syntheses were performed on a Synthra (Hamburg, Germany) model RN Plus automated synthesizer module. Boc-deprotection was conducted with 0.4 mmol aqueous HCl at 95° C. added directly to the labeling reaction mixture without any prior purification. The two-step synthesis can be finished in approximately 80 min with the total radiochemical yield of 47% after decay correction. • 1. [^18F]-Fluoride, received from PETNET (Waltham, Mass.), was produced by the ^18O(p,n)^18F nuclear reaction and delivered to the reagent vial A (A) of the radiosynthesis module via syringe after mixing with tetrabutylammonium bicarbonate ([…], 75 mM in H2O, 250 μL) and acetonitrile (MeCN, 300 μL). • 2. Automated synthesis began with the addition the [^18F]-fluoride/TBAB mixture (A) and MeCN (B) to the reaction vessel 1 (RV1). • 3. […] The eluent was monitored by UV (λ=254 nm) and radiochemical detectors connected in series. • 8. […]

With `O=C(Cc1c[nH]c2ccc(O)cc12)NC(Cc1c[nH]c2ccc(O)cc12)C(=O)NCCOCCOCC[18F]` (centres unmarked) [Compound 9], under “0.5% (w/v) aqueous sodium-ascorbate in saline”, the “Time stable on storage” value is recorded as “at least 4 h”. Moreover, where the note is “1×PBS for injection”, the Stability on storage entry was “degraded over time”.
